The target in the assay is T1, human full-length MKNK1 (Homo sapiens, UniProt Q9BUB5, T385D).
T1 construct: purchased Carna Biosciences 02-145; host or cells: insect cells (baculovirus expression system)
The assay can be described thus: MKNK1 kinase high ATP assay (TR-FRET). The format is biochemical. As to conditions: high ATP (2 mM final), 15 min preincubation with enzyme, GST-MKNK1 (T344D). On the procedure:
MKNK1-inhibitory activity at high ATP of compounds of the present invention after their preincubation with MKNK1 was quantified employing the TR-FRET-based MKNK1 high ATP assay as described in the following paragraphs.
A recombinant fusion protein of Glutathione-S-Transferase (GST, N-terminally) and human full-length MKNK1 (amino acids 1-424 and T344D of accession number BAA 19885.1), expressed in insect cells using baculovirus expression system and purified via glutathione sepharose affinity chromatography, was purchased from Carna Biosciences (product no 02-145) and used as enzyme. As substrate for the kinase reaction the biotinylated peptide biotin-Ahx-IKKRKLTRRKSLKG (C-terminus in amide form) was used, which can be purchased e.g. from the company Biosyntan (Berlin-Buch, Germany).
For the assay 50 nL of a 100 fold concentrated solution of the test compound in DMSO was pipetted into a black low volume 384 well microtiter plate (Greiner Bio-One, Frickenhausen, Germany), 2 μL of a solution of MKNK1 in aqueous assay buffer [50 mM HEPES pH 7.5, 5 mM MgCl2, 1.0 mM dithiothreitol, 0.005% (v/v) Nonidet-P40 (Sigma)] was added and the mixture was incubated for 15 min at 22° C. to allow pre-binding of the test compounds to the enzyme before the start of the kinase reaction. Then the kinase reaction was started by the addition of 3 μL of a solution of adenosine-tri-phosphate (ATP, 3.3 mM=> final conc. in the 5 μL assay volume is 2 mM) and substrate (0.1 μM=> final conc. in the 5 μL assay volume is 0.06 μM) in assay buffer and the resulting mixture was incubated for a reaction time of 30 min at 22° C. The concentration of MKNK1 was adjusted depending of the activity of the enzyme lot and was chosen appropriate to have the assay in the linear range, typical concentrations were in the range of 0.003 μg/mL. The reaction was stopped by the addition of 5 μL of a solution of TR-FRET detection reagents (5 nM streptavidine-XL665 [Cisbio Bioassays, Codolet, France] and 1 nM anti-ribosomal protein S6 (pSer236)-antibody from Invitrogen [#44921G] and 1 nM LANCE EU-W1024 labeled ProteinG [Perkin-Elmer, product no. AD0071]) in an aqueous EDTA-solution (100 mM EDTA, 0.1% (w/v) bovine serum albumin in 50 mM HEPES pH 7.5).
The resulting mixture was incubated for 1 h at 22° C. to allow the formation of complex between the phosphorylated biotinylated peptide and the detection reagents. Subsequently the amount of phosphorylated substrate was evaluated by measurement of the resonance energy transfer from the Eu-chelate to the streptavidine-XL. Therefore, the fluorescence emissions at 620 nm and 665 nm after excitation at 350 nm were measured in a TR-FRET reader, e.g. a Rubystar (BMG Labtechnologies, Offenburg, Germany) or a Viewlux (Perkin-Elmer). The ratio of the emissions at 665 nm and at […] was taken as the measure for the amount of phosphorylated substrate. The data were normalised (enzyme reaction without inhibitor=0% inhibition, all other assay components but no enzyme=100% inhibition).

T1 sequence (Q9BUB5 1-424 isoform Q9BUB5-2 T344D): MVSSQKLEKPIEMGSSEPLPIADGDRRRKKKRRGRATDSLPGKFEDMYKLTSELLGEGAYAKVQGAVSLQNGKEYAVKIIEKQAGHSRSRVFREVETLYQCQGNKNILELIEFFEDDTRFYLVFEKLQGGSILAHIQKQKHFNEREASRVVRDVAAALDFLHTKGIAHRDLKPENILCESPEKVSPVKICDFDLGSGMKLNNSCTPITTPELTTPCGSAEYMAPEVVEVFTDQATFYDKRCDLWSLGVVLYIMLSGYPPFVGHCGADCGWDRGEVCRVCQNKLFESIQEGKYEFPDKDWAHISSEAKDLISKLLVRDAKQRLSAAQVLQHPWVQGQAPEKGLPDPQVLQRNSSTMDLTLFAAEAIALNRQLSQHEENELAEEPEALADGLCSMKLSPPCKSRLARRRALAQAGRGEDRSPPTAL

`CN(C)C1CCN(C(=O)c2[nH]c3ncnc(Nc4cnc5[nH]ncc5c4)c3c2Br)CC1` [Example 127, [5-Bromo-4-(1H-pyrazolo[3,4-b]pyridin-5-ylamino)-7H-pyrrolo[2,3-d]pyrimidin-6-yl][4-(dimethylamino)piperidin-1-yl]methanone] registered an IC50 of 76.8 nM. In other words, the double-digit nanomolar range.
As for `CN(C)CCNC(=O)c1[nH]c2ncnc(Nc3cc4cn[nH]c4cn3)c2c1Br` [Example 120, 5-Bromo-N-[2-(dimethylamino)ethyl]-4-(1H-pyrazolo[3,4-c]pyridin-5-ylamino)-7H-pyrrolo[2,3-d]pyrimidine-6-carboxamide], inhibition was half-maximal at 14.5 nM (IC50).
On to `CN(C)CCCN(C)C(=O)c1[nH]c2ncnc(Nc3cc4cn[nH]c4nc3O)c2c1Br` [Example 132, 5-Bromo-N-[3-(dimethylamino)propyl]-4-[(6-hydroxy-1H-pyrazolo[3,4-b]pyridin-5-yl)amino]-N-methyl-7H-pyrrolo[2,3-d]pyrimidine-6-carboxamide], for which it took 23.4 nM to reach half-maximal inhibition (IC50).
As for `O=C(c1[nH]c2ncnc(Nc3cc4cn[nH]c4nc3O)c2c1Br)N1CCCCC1` [Example 134], the figure is 10.8 nM.
As for `CN1CCN(C(=O)C2CCc3[nH]c4ncnc(Nc5cnc6[nH]ncc6c5)c4c3C2)CC1` (racemic) [Example 32, (RS)-(4-Methylpiperazin-1-yl)[4-(1H-pyrazolo[3,4-b]pyridin-5-ylamino)-6,7,8,9-tetrahydro-5H-pyrimido[4,5-b]indol-6-yl]methanone], the figure is 49 nM; as for `CN(C)[C@@H]1CCN(C(=O)[C@H]2CCc3c(sc4ncnc(Nc5cnc6[nH]ncc6c5)c34)C2)C1` [Example 101, [(3R)-3-(Dimethylamino)pyrrolidin-1-yl][(7S)-4-(1H-pyrazolo[3,4-b]pyridin-5-ylamino)-5,6,7,8-tetrahydro[1]benzothieno[2,3-d]pyrimidin-7-yl]methanone], 4.6 nM.
As for `COc1nc2[nH]ncc2cc1Nc1ncnc2[nH]c(C(=O)N(C)CCCN(C)C)c(Br)c12` [Example 131, 5-Bromo-N-[3-(dimethylamino)propyl]-4-[(6-methoxy-1H-pyrazolo[3,4-b]pyridin-5-yl)amino]-N-methyl-7H-pyrrolo[2,3-d]pyrimidine-6-carboxamide], the figure is 6.7 nM; as for `COc1nc2[nH]ncc2cc1Nc1ncnc2[nH]c(C(=O)N3CCOC[C@@H]3C)c(Br)c12` [Example 135], 7.3 nM; as for `O=C([C@H]1CCc2c(sc3ncnc(Nc4cc5cn[nH]c5cn4)c23)C1)N1CCOCC1` [Example 86, Morpholin-4-yl [(7S)-4-(1H-pyrazolo[3,4-c]pyridin-5-ylamino)-5,6,7,8-tetrahydro[1]benzothieno[2,3-d]pyrimidin-7-yl]methanone], 7.1 nM.
Molecule `N#CC1CN(C(=O)[C@H]2CCc3c(sc4ncnc(Nc5cc6cn[nH]c6cn5)c34)C2)C1` [Example 82, 1-{[(7S)-4-(1H-Pyrazolo[3,4-c]pyridin-5-ylamino)-5,6,7,8-tetrahydro[1]benzothieno[2,3-d]pyrimidin-7-yl]carbonyl}azetidine-3-carbonitrile] displayed an IC50 of 3.2 nM.
As for `CN1CCN(C(=O)[C@H]2CCc3c(sc4ncnc(Nc5cnc6[nH]ncc6c5)c34)C2)CC1` [Example 106, (4-Methylpiperazin-1-yl)[(7S)-4-(1H-pyrazolo[3,4-b]pyridin-5-ylamino)-5,6,7,8-tetrahydro[1]benzothieno[2,3-d]pyrimidin-7-yl]methanone], the figure is 20.4 nM; as for `CCOC(=O)c1cc2c(Nc3cnc4[nH]ncc4c3)ncnc2[nH]1` [Example 9, Ethyl 4-(1H-pyrazolo[3,4-b]pyridin-5-ylamino)-7H-pyrrolo[2,3-d]pyrimidine-6-carboxylate], 3 nM; as for `COc1nc2[nH]ncc2cc1Nc1ncnc2[nH]c(C(=O)N3CCC(N(C)C)CC3)c(Br)c12` [Example 64, {5-Bromo-4-[(6-methoxy-1H-pyrazolo[3,4-b]pyridin-5-yl)amino]-7H-pyrrolo[2,3-d]pyrimidin-6-yl}[4-(dimethylamino)piperidin-1-yl]methanone], 4.2 nM.
Turning to `CCCCN(C)C(=O)[C@H]1CCc2c(sc3ncnc(Nc4cc5cn[nH]c5nc4OC)c23)C1` [Example 51, (7S)—N—Butyl-4-[(6-methoxy-1H-pyrazolo[3,4-b]pyridin-5-yl)amino]-N-methyl-5,6,7,8-tetrahydro[1]benzothieno[2,3-d]pyrimidine-7-carboxamide], the IC50 amounted to 0.5 nM.
Next, `C[C@@H]1CN(C(=O)[C@H]2CCc3c(sc4ncnc(Nc5cnc6[nH]ncc6c5)c34)C2)C[C@H](C)O1` [Example 105, [(2R,6S)-2,6-Dimethylmorpholin-4-yl][(7S)-4-(1H-pyrazolo[3,4-b]pyridin-5-ylamino)-5,6,7,8-tetrahydro[1]benzothieno[2,3-d]pyrimidin-7-yl]methanone]: 18.1 nM.
Next, `C[C@@H]1COCCN1C(=O)c1[nH]c2ncnc(Nc3cnc4[nH]ncc4c3)c2c1Br` [Example 73, [5-Bromo-4-(1H-pyrazolo[3,4-b]pyridin-5-ylamino)-7H-pyrrolo[2,3-d]pyrimidin-6-yl][(3R)-3-methylmorpholin-4-yl]methanone]: 144 nM; `CN1CCN(C(=O)[C@H]2CCc3c(sc4ncnc(Nc5cc6cn[nH]c6cn5)c34)C2)CC1` [Example 90, (4-Methylpiperazin-1-yl)[(7S)-4-(1H-pyrazolo[3,4-c]pyridin-5-ylamino)-5,6,7,8-tetrahydro[1]benzothieno[2,3-d]pyrimidin-7-yl]methanone]: 5.2 nM.
The molecule `CN(C)C(=O)c1cc2c(Nc3cc4cn[nH]c4cn3)ncnc2[nH]1` [Example 18, N,N-Dimethyl-4-(1H-pyrazolo[3,4-c]pyridin-5-ylamino)-7H-pyrrolo[2,3-d]pyrimidine-6-carboxamide] registered a half-inhibitory concentration (IC50) of 11.1 nM.
Next, `O=C([C@H]1CCc2c(sc3ncnc(Nc4cc5cn[nH]c5cn4)c23)C1)N1CCC1` [Example 55, Azetidin-1-yl[(7S)-4-(1H-pyrazolo[3,4-c]pyridin-5-ylamino)-5,6,7,8-tetrahydro[1]benzothieno[2,3-d]pyrimidin-7-yl]methanone]: 9.7 nM.
As for `C[C@H]1COCCN1C(=O)c1[nH]c2ncnc(Nc3cnc4[nH]ncc4c3)c2c1Br` [Example 75, [5-Bromo-4-(1H-pyrazolo[3,4-b]pyridin-5-ylamino)-7H-pyrrolo[2,3-d]pyrimidin-6-yl][(3S)-3-methymorpholin-4-yl]methanone], the figure is 61 nM; as for `CCCN(CCOC)C(=O)[C@H]1CCc2c(sc3ncnc(Nc4cc5cn[nH]c5nc4OC)c23)C1` [Example 49, (7S)—N-(2-Methoxyethyl)-4-[(6-methoxy-1H-pyrazolo[3,4-b]pyridin-5-yl)amino]-N-propyl-5,6,7,8-tetrahydro[1]benzothieno[2,3-d]pyrimidine-7-carboxamide], 0.3 nM; as for `CCCN(C)C(=O)[C@H]1CCc2c(sc3ncnc(Nc4cc5cn[nH]c5nc4O)c23)C1` [Example 113, (7S)-4-[(6-Hydroxy-1H-pyrazolo[3,4-b]pyridin-5-yl)amino]-N-methyl-N-propyl-5,6,7,8-tetrahydro[1]benzothieno[2,3-d]pyrimidine-7-carboxamide], 3.3 nM.
